Data published in article PMC7407272, “Induction of Lysosome Membrane Permeabilization as a Therapeutic Strategy to Target Pancreatic Cancer Stem Cells” (Cancers, 2020).

How the values were obtained:
PFCDPK1(P.falciparum) = target: T1, PFCDPK1(P.falciparum) (Plasmodium falciparum, UniProt P62344); test: KINOMEscan; assay type: binding; settings: read-out: % Ctrl
T1 construct: purchased DiscoveRx KINOMEscan

ABL1(F317L)-P = target: T2, ABL1(F317L)-P (Homo sapiens, UniProt P00519, F317L); test: KINOMEscan; assay type: binding; settings: read-out: % Ctrl
T2 construct: purchased DiscoveRx KINOMEscan
T2 sequence (P00519 whole entry F317L): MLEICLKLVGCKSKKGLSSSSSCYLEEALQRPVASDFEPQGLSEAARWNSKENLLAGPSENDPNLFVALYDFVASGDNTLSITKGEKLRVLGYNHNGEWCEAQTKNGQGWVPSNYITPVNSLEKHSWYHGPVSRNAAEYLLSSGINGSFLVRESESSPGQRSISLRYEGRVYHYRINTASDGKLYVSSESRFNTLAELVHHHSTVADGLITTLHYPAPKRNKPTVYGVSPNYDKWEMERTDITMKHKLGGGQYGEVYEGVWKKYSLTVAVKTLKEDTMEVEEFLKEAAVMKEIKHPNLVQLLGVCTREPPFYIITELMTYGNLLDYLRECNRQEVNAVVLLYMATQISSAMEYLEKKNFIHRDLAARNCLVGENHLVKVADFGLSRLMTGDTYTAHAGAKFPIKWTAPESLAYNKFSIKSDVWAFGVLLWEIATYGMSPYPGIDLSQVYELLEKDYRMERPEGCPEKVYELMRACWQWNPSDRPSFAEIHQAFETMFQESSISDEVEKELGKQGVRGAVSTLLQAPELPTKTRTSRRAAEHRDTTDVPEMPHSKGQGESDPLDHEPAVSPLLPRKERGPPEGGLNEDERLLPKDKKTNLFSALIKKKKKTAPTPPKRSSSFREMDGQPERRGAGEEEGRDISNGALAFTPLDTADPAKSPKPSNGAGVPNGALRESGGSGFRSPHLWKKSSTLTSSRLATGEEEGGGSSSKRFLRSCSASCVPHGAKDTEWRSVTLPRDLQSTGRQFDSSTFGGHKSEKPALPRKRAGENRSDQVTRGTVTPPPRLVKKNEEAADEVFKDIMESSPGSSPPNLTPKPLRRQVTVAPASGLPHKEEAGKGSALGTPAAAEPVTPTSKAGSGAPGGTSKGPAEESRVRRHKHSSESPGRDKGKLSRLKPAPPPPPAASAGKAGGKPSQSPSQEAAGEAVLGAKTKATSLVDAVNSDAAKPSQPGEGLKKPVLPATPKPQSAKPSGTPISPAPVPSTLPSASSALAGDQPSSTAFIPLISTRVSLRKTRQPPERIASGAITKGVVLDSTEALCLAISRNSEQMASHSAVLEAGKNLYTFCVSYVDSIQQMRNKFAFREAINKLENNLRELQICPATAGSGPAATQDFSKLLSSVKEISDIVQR

FLT3(D835Y) = target: T3, FLT3(D835Y) (Homo sapiens, UniProt P36888, D835Y); test: KINOMEscan; assay type: binding; settings: read-out: % Ctrl
T3 construct: purchased DiscoveRx KINOMEscan

ABL1-P = target: T4, ABL1-P (Homo sapiens, UniProt P00519); test: KINOMEscan; assay type: binding; settings: read-out: % Ctrl
T4 construct: purchased DiscoveRx KINOMEscan
T4 sequence (P00519 whole entry): as the sequence (P00519 whole entry F317L) above, with L317F counted along it

FLT3(K663Q) = target: T5, FLT3(K663Q) (Homo sapiens, UniProt P36888, K663Q); test: KINOMEscan; assay type: binding; settings: read-out: % Ctrl
T5 construct: purchased DiscoveRx KINOMEscan

HIPK2 = target: T6, HIPK2 (Homo sapiens, UniProt Q9H2X6); test: KINOMEscan; assay type: binding; settings: read-out: % Ctrl
T6 construct: purchased DiscoveRx KINOMEscan
T6 sequence (Q9H2X6 whole entry): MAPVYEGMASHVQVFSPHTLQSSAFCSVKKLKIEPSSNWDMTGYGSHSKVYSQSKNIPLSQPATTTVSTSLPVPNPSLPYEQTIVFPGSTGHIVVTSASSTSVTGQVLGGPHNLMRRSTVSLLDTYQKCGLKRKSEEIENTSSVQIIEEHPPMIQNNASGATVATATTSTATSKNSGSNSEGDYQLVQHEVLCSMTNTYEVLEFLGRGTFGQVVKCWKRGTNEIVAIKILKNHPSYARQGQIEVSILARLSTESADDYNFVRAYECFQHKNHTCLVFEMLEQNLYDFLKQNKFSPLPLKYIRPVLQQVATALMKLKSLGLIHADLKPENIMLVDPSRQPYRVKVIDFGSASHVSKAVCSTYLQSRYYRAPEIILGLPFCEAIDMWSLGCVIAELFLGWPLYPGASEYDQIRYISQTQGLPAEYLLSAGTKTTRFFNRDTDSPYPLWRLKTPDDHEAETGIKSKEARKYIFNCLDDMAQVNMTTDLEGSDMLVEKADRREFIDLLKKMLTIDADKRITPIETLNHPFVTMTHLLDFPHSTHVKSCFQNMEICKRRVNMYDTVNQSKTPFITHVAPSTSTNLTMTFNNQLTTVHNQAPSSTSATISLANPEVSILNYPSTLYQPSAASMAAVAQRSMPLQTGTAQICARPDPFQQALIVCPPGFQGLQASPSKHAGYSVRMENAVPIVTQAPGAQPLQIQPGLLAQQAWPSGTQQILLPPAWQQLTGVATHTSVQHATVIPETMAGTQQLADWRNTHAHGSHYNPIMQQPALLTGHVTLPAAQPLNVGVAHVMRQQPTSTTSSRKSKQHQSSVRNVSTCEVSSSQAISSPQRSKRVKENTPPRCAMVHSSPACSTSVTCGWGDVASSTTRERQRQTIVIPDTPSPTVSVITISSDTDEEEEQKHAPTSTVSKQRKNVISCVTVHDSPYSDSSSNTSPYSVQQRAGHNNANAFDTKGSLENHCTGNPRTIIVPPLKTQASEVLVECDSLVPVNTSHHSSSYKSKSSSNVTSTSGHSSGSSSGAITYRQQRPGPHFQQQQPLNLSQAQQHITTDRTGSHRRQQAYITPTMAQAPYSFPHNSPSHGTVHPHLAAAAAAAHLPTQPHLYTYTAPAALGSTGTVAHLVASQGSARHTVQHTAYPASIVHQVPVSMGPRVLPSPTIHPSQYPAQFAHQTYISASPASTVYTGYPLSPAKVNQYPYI

AURKC = target: T7, AURKC (Homo sapiens, UniProt Q9UQB9); test: KINOMEscan; assay type: binding; settings: read-out: % Ctrl
T7 construct: purchased DiscoveRx KINOMEscan

CDC2L1 = target: T8, CDC2L1 (Homo sapiens, UniProt P21127); test: KINOMEscan; assay type: binding; settings: read-out: % Ctrl
T8 construct: purchased DiscoveRx KINOMEscan

RIPK5 = target: T9, RIPK5 (Homo sapiens, UniProt Q6XUX3); test: KINOMEscan; assay type: binding; settings: read-out: % Ctrl
T9 construct: purchased DiscoveRx KINOMEscan

ROCK1 = target: T10, ROCK1 (Homo sapiens, UniProt Q13464); test: KINOMEscan; assay type: binding; settings: read-out: % Ctrl
T10 construct: purchased DiscoveRx KINOMEscan

ROCK2 = target: T11, ROCK2 (Homo sapiens, UniProt O75116); test: KINOMEscan; assay type: binding; settings: read-out: % Ctrl
T11 construct: purchased DiscoveRx KINOMEscan

SGK3 = target: T12, SGK3 (Homo sapiens, UniProt Q96BR1); test: KINOMEscan; assay type: binding; settings: read-out: % Ctrl
T12 construct: purchased DiscoveRx KINOMEscan
T12 sequence (Q96BR1 whole entry): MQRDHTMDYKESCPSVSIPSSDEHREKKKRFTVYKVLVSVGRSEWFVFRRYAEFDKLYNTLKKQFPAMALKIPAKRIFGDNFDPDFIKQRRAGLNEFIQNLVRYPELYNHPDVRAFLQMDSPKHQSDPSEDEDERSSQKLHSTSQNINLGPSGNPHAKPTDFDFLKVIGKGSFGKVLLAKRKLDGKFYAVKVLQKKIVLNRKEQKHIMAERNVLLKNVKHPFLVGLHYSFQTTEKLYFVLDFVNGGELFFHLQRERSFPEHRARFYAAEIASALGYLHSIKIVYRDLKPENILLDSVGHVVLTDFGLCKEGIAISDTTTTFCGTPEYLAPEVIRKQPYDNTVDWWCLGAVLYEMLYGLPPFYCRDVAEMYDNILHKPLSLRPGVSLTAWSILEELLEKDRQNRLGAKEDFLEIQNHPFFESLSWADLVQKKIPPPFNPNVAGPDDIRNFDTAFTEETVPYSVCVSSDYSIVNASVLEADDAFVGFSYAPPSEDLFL

SRPK1 = target: T13, SRPK1 (Homo sapiens, UniProt Q96SB4); test: KINOMEscan; assay type: binding; settings: read-out: % Ctrl
T13 construct: purchased DiscoveRx KINOMEscan

CTK = target: T14, CTK (Homo sapiens, UniProt P42679); test: KINOMEscan; assay type: binding; settings: read-out: % Ctrl
T14 construct: purchased DiscoveRx KINOMEscan
T14 sequence (P42679 whole entry): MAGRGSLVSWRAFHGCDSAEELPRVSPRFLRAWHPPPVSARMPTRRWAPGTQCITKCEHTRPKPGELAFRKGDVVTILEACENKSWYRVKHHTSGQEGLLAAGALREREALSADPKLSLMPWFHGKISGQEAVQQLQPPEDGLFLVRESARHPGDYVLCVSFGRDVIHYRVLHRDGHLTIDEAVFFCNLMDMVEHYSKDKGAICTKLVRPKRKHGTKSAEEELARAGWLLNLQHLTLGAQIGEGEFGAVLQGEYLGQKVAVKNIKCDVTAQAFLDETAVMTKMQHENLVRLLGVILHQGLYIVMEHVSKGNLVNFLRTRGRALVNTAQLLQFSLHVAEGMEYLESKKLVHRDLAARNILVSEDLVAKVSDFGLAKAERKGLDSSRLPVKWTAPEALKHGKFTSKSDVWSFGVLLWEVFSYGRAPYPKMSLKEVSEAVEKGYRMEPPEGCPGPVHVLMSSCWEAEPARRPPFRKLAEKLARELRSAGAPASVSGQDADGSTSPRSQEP

DDR2 = target: T15, DDR2 (Homo sapiens, UniProt Q16832); test: KINOMEscan; assay type: binding; settings: read-out: % Ctrl
T15 construct: purchased DiscoveRx KINOMEscan

TGFBR2 = target: T16, TGFBR2 (Homo sapiens, UniProt P37173); test: KINOMEscan; assay type: binding; settings: read-out: % Ctrl
T16 construct: purchased DiscoveRx KINOMEscan
T16 sequence (P37173 23-567): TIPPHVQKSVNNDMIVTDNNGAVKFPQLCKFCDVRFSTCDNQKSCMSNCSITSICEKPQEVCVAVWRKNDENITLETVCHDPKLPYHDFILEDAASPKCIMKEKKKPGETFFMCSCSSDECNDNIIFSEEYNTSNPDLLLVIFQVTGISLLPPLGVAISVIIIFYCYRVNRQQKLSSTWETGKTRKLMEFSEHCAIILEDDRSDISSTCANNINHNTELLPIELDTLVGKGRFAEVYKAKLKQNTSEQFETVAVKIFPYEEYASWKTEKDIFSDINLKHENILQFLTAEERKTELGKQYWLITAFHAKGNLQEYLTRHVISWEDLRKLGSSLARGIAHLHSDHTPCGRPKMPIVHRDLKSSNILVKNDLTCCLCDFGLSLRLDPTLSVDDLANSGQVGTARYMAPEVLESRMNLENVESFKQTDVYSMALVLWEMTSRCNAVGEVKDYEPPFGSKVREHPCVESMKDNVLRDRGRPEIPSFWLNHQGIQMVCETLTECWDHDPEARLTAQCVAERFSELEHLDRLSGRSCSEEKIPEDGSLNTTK

ZAP70 = target: T17, ZAP70 (Homo sapiens, UniProt P43403); test: KINOMEscan; assay type: binding; settings: read-out: % Ctrl
T17 construct: purchased DiscoveRx KINOMEscan
T17 sequence (P43403 whole entry): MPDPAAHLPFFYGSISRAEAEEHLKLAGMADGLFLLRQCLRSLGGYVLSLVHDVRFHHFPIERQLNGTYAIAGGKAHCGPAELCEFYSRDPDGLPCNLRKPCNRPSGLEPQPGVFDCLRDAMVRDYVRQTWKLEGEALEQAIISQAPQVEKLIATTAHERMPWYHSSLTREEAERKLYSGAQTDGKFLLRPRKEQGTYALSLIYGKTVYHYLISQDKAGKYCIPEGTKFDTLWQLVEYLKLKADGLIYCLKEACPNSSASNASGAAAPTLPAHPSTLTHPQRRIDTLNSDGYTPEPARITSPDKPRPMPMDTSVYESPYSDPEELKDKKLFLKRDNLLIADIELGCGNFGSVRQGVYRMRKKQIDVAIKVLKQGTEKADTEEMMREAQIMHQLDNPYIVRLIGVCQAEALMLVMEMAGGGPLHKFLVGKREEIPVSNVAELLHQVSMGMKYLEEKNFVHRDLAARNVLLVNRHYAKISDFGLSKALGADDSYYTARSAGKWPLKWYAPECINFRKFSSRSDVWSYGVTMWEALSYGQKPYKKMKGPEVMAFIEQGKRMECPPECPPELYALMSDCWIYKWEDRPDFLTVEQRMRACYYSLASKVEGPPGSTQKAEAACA

PDAC1 xenografts = test: PDX treatment in nude mice; assay type: in vivo, NU-Foxn1nu nude mice; settings: PDAC1 PDX; GEM 125 mg/kg i.p. biweekly, SIR 30 mg/kg oral gavage; 23 days
Procedure: (§1) Cells were analyzed with a 4-laser Attune NxT Acoustic Cytometer (ThermoFisher Scientific). Cells and digested tumors (as described in [41]) were resuspended in FLOW buffer (1X PBS; 3 mM EDTA (v/v); 3% FBS (v/v)), and the following fluorescently-tagged antibodies were used to label cells for 30 min at 4 °C: Mouse monoclonal anti-human CD133-PE (1:20, Cat no. 130-110-962, Miltenyi, Bergisch Gladbach, Germany), Mouse monoclonal anti-human CD133-APC (1:20, Cat no. 130-111-080, Miltenyi, Bergisch Gladbach, Germany), mouse monoclonal anti-human C-X-C chemokine receptor type 4- Phycoerythrin (CXCR4-PE) (1:20, Cat no. 130-117-354, Miltenyi, Bergisch Gladbach, Germany), or mouse monoclonal anti-human Epithelial cell adhesion molecule-fluorescein isothiocyanate (EpCAM-FITC) (1:20, Cat no. 130-111-115, Miltenyi, Bergisch Gladbach, Germany). Autofluorescent cells were excited with blue laser 488nm and selected as the intersection with the filters 530/40 and 580/30 as previously described. For lysosomes quantification, Acridine Orange (AO) (A1301, Thermo Fisher Scientific, Waltham, MA, USA) or Lysotracker Deep Red (DR) (L12492, Molecular probes, Life Technologies, Waltham, MA, USA) were used. AO fluorescence was assessed with two combinations of excitation and emission spectra: BL1 […] BL3 (Ex488/Em695/40, equal to the far-red channel (>670 nm)) Lysotracker DR fluorescence was assessed with RL1 (Ex638/Em670/14). Bafilomycin A1 (100 nM, Calbiochem, San Diego, CA, USA) was included as a positive control for lysosome disruption. For Annexin V staining, floating and attached cells were pooled and resuspended in 1× AnnexinV staining buffer containing AnnexinV-APC diluted 1:20 (Biotium, Freemont, CA, USA) and incubated for 20 min at room temperature prior to flow cytometric analysis. For all assays, DAPI was used to mark and exclude dead cells, and data were analyzed using the software FlowJo v9.3 (Tree Star Inc., Ashland, OR, USA).
(§2) Female 6- to 8-week-old NU-Foxn1nu nude mice (Envigo, Spain) were subcutaneously injected with control or pre-treated 1 × 10^4 PDAC cells in 50 µL of Matrigel^TM (Corning). Tumor growth was monitored bi-weekly for up to 10 weeks. For Siramesine experiments, mice were subcutaneously implanted with PDAC1 and PDAC3 PDXs. After 4 weeks of tumor growth, mice were randomized into treatment groups (5 mice per group). Mice were treated with Siramesine twice a week (30 mg/kg by oral gavage formulated in 0.5% methylcellulose 15 cP in 0.9% NaCl solution) for ~4 weeks. Gemcitabine (GEMZAR®, Eli Lilly, Indianapolis, IN, USA) was administered twice a week (125 mg/kg i.p.) for ~4 weeks. Tumor volumes (mm^3) were determined twice per week using a digital caliper. Mice were sacrificed at 24 days post treatment initiation and tumors were extracted and analyzed by flow cytometry as described above. For second generation tumor formation, 1000 and 100 cells of indicated treatment groups were resuspended in Matrigel ^TM and injected subcutaneously in recipient NU-Foxn1nu nude mice and tumor formation was monitored for 10 weeks. Mice were housed according to institutional guidelines and all experiments were performed in compliance with the institutional guidelines for the welfare of experimental animals approved by the Universidad Autónoma de Madrid Ethics Committee (CEI 60-1057-A068) or by the Instituto de Salud Carlos III Ethics Committee (CBA12_2014-v3) and La Comunidad de Madrid (PROEX 335/14 or PROEX 53/14) and in accordance with the guidelines for Ethical Conduct in the Care and Use of Animals as stated in The International Guiding Principles for Biomedical Research involving Animals, developed by the Council for International Organizations of Medical Sciences (CIOMS).

PDAC3 xenografts = test: PDX treatment in nude mice; assay type: in vivo, NU-Foxn1nu nude mice
Procedure: as §1, §2

T1 sequence (P62344 whole entry): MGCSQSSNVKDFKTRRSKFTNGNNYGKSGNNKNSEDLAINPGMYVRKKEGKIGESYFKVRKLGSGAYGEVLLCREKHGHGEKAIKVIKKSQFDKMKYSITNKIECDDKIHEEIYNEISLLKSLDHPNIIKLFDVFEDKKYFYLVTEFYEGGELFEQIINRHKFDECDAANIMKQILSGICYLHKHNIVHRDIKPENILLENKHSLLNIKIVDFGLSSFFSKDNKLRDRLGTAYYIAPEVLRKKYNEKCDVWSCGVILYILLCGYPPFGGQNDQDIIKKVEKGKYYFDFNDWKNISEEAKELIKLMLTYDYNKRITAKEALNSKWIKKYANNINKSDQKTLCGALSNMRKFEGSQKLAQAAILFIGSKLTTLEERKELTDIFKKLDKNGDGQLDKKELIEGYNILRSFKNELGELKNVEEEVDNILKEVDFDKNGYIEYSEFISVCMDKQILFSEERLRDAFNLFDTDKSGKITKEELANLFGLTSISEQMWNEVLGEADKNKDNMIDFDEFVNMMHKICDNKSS

SMILES | remaining binding at 1 µM (PFCDPK1(P.falciparum)) [%] | remaining binding at 1 µM (ABL1(F317L)-P) [%] | remaining binding at 1 µM (FLT3(D835Y)) [%] | remaining binding at 1 µM (ABL1-P) [%] | remaining binding at 1 µM (FLT3(K663Q)) [%] | remaining binding at 1 µM (HIPK2) [%] | remaining binding at 1 µM (AURKC) [%] | remaining binding at 1 µM (CDC2L1) [%] | remaining binding at 1 µM (RIPK5) [%] | remaining binding at 1 µM (ROCK1) [%] | remaining binding at 1 µM (ROCK2) [%] | remaining binding at 1 µM (SGK3) [%] | remaining binding at 1 µM (SRPK1) [%] | remaining binding at 1 µM (CTK) [%] | remaining binding at 1 µM (DDR2) [%] | remaining binding at 1 µM (TGFBR2) [%] | remaining binding at 1 µM (ZAP70) [%] | tumor volume versus control (PDAC1 xenografts) | tumor volume versus control (PDAC3 xenografts; PDAC3 PDX, GEM 125 mg/kg i.p. biweekly, SIR 30 mg/kg oral gavage, 23 days) | percentage of CD133+ and CD133+/CXCR4+ in tumors (PDAC3 xenografts; PDAC3 tumors, 30 mg/kg)
CN1CCC(CNc2ccc3ncc(C(=O)Nc4cccc(OC(F)(F)F)c4)n3n2)CC1 [Cpd 2] | 88 | 100 | 65 | 95 | 92 | 68 | 95 | 100 | 84 | 50 | 94 | 100 | 95 | 70 | 89 | 100 | 95 | – | – | –
Fc1ccc(-n2cc(CCCCN3CCC4(CC3)OCc3ccccc34)c3ccccc32)cc1 [siramesine] | – | – | – | – | – | – | – | – | – | – | – | – | – | – | – | – | – | no significant differences | no significant differences | reduce
